pKi: −log10 of the molar value. The source made the active and inactive calls. The calls are words filed in the database; no cut-off is given here.
Assays:
[1] = Antiproliferative activity against human NSC-24 cells at 34.2 ug/ml to 100 uM by WST-1 assay; assay type: cell-based
[2] = target: Indoleamine 2,3-dioxygenase 1 (Homo sapiens, UniProt P14902); assay: Competitive inhibition of human indoleamine 2,3-dioxygenase assessed as conversion of N-formylkynurenine to kynurenine after 2 hrs by spectrophotometrical analysis
Sequence of Indoleamine 2,3-dioxygenase 1 (P14902 whole entry): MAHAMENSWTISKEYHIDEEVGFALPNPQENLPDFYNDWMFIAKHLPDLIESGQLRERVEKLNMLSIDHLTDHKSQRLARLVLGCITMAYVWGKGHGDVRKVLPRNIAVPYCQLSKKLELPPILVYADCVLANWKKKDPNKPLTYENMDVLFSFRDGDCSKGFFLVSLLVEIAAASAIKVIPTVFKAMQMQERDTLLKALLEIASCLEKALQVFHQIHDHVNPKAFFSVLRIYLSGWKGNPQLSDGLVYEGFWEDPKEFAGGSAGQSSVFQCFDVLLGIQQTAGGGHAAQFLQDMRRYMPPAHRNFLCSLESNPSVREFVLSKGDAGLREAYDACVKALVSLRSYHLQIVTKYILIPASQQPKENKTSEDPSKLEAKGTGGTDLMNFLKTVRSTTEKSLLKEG

TG1 = assay: Induction of Erk phosphorylation in human TG1 cells at 100 uM after 30 mins by Western blot analysis; assay type: cell-based
NSC-24 = assay: Inhibition of Erk phosphorylation in human NSC-24 cells at 100 uM after 30 mins by Western blot analysis; assay type: cell-based
[3] = Antiproliferative activity against human TG1 cells at 34.2 ug/ml by WST-1 assay; assay type: functional
[4] = Antiproliferative activity against human TG10 cells at 34.2 ug/ml by WST-1 assay; assay type: functional

Compound: COc1c2c(c3ccc(=O)oc3c1/C=C/C(C)(C)O)OC(C)(C)C=C2 [AVICENNOL]
- Activity [1]: Non-toxic
- pKi [2]: 3.20
- Activity (TG1): Active
- inhibition (NSC-24): Active
- Activity [3]: 35%
- Activity [4]: 40%

From ChEMBL document CHEMBL2010739, “Antiproliferative activity of trans-avicennol from Zanthoxylum chiloperone var. angustifolium against human cancer stem cells” (J Nat Prod, 2012)
